Patent publication US20260240880A1, “AGENT FOR AMELIORATING OR TREATING DEMENTIA, PRIMARILY ALZHEIMER'S DEMENTIA” (HOMO C[…] AND DEVELOPMENT INSTITUTE, priority 2023, published 2026)
“Also recorded” adds a separate entry of the source.

Columns and labels:
[1] = In vivo hippocampal microdialysis with LC/MS determination of 2ccPA (blood-brain barrier crossing); design: species or system mouse; details: 0.9 mg/kg i.p.; for 2ccPA concentration in microdialysis recovery fluid: hippocampus
Protocol: To confirm that 2ccPA crosses the blood-brain barrier (BBB) and enters the brain, an experiment was conducted at the Kurume Modality Analysis Laboratory of BioSafety Research Center Inc. (BSRC), which has a long track record in microdialysis, and the Institute for Disease Modeling, Kurume University School of Medicine.
2ccPA was administered intraperitoneally to 33-week-old male C57BL/6J-Aged mice (SPF, Jackson Laboratory Japan, Inc.) with a dialysis probe (FX-I-4-02, EICOM) placed in the hippocampus of the mouse brain. After that, the brain microdialysis perfusate was collected at […], 1 hour before administration and every 30 minutes (0.5 to 5.0 hours) after administration, using the in vivo microdialysis method.
The hippocampal guide cannula placement surgery was performed under isoflurane anesthesia, with a guide cannula and a dummy cannula placed at the hippocampal coordinate position (AP=−3.1 mm; ML=+2.7 mm; DV=−3.7 mm). After surgery, Vetorphale was administered subcutaneously for analgesia. Three to five days after the cannula was placed, the cannula was replaced with a dialysis probe under isoflurane inhalation anesthesia, and pre-perfusion (perfusion solution: saline containing 0.15% BSA) was then initiated.
2ccPA administration was performed under isoflurane anesthesia. D-PBS(−) containing 0.1% BSA was added to […], and the mixture was dispersed by ultrasonic treatment, thereby preparing a dosing solution.
The dosing solution was diluted with D-PBS(−) containing 0.1% BSA to a concentration of 0.9 mg/kg/day, and then sonicated individually just immediately administration. The administration route was intraperitoneal administration.
The microdialysis perfusate was collected at 11 time points: 1 hour before administration and 0.5, 1.0, 1.5, 2.0, 2.5, 3.0, 3.5, 4.0, 4.5, and 5.0 hours after administration, and each was collected into ice-cooled siliconized tubes.
Five mice in each test group underwent hippocampal cannula placement surgery, replacement with a dialysis probe, administration of the test substance, and collection of the microdialysis perfusate. The collected solution was added to an ice-cold acid-methanol solution (pH 4), stirred, and then promptly frozen in liquid nitrogen and stored at −80° C.
The concentration of 2ccPA in the perfusate collected by microdialysis from mice administered with 2ccPA was measured using LC/MS. The conditions are as follows: Shimizu Y., Fukasawa K., Yamamoto S., Shibike Y., Tsukahara R., Ishikawa M., Iwasa K., Yoshikawa K., Gotoh M., Murakami-Murofushi K. Evaluation of the pharmacokinetics of 2-carba-cyclic phosphatidic acid by liquid chromatography-triple quadrupole mass spectrometry
The standard solution for the calibration curve was prepared by adding ethanol to the standard substance, 2ccPA, dissolving it, and then mixing it with the blank matrix. The internal standard solution (IStd) was prepared by adding ultrapure water to the internal standard substance (ranitidine hydrochloride), dissolving it, and then diluting it with ultrapure water (10 ng/mL). The measurement specimen (microdialysis perfusate) was prepared by adding an acidic methanol solution (pH 4) in an amount five times the volume of the sample.
The measurement samples (the measurement specimen and the standard solution for the calibration curve) were deproteinized by adding a specimen treatment solution containing the internal standard solution to each sample. After centrifugation, the supernatant was filtered, and the 2ccPA concentration was measured using a Q Exactive Ultimate 3000 system (Thermo Scientific), thereby yielding the following results.

[2] = test system: tau protein and phosphorylated tau protein; experiment: Quantitative determination of tau protein and phosphorylated tau protein (immunostaining of brain sections); format: in vivo, mouse; details: for Suppression of phosphorylation of tau protein: APPosk mice, low dose; for Phosphorylated tau (Ser396) area/Hippocampus area (average) / Phosphorylated tau (Ser404) area/Hippocampus area (average) / Tau protein area/Hippocampus area (average) / Phosphorylated tau (Ser396) area/Hippocampus area / Phosphorylated tau (Ser404) area/Hippocampus area / Tau protein area/Hippocampus area: APPosk-Tg mice, low dose (L) 0.9 mg/kg; for Phosphorylated tau (Ser396) area/Hippocampus area / Phosphorylated tau (Ser404) area/Hippocampus area / Tau protein area/Hippocampus area: range; for Tau protein area/Hippocampus area: five sections
Source text: After exsanguination, 6 of the 10 individuals in each group (with numbers ending in 1 to 6) were perfused with phosphate-buffered saline (PBS) and then perfused again with 4% paraformaldehyde (PFA) to fix the brains, after which the brains were removed. The extracted brains were then infiltrated and fixed using the same fixative solution. The remaining four individuals in each group (with numbers ending in 7 to 10) were perfused whole body with PBS, and then their brains were extracted and frozen using liquid nitrogen.
Serial sections (thickness: 40 μm) of fixed mouse […] were prepared using a cryostat. The sections were incubated overnight with primary antibodies and then for 1 hour with secondary antibodies. Stained images were then captured using a confocal microscope (Carl Zeiss) and quantified using NIH ImageJ. The primary antibodies used were non-phosphorylated tau antibody (Invitrogen), phosphorylated tau (Ser396) antibody (Invitrogen), and phosphorylated tau (Ser404) antibody (Invitrogen), and the secondary antibodies used were biotinylated goat anti-mouse IgG antibody (Vector Lab.) and biotinylated goat anti-rabbit IgG antibody (Vector Lab.). Quantitative determination was carried out using five sections each.
Quantitative determination of tau protein and phosphorylated tau protein in the hippocampus of normal, pathological, pathological+2ccPA (low dose), and pathological+2cLPA (low dose) mice

[3] = test system: Alzheimer's dementia model mouse (APPosk); experiment: Morris water maze test (escape latency); format: in vivo; details: APPosk mice; for Memory improvement effect in the Morris water maze test: i.p. once daily for 168 days (24 weeks), tested at 48 weeks of age; for Memory effect in the Morris water maze test at low dose: low dose 0.9 mg/kg i.p. once daily for 24 weeks
Source text: (§1) Sixty-eight APPosk (SPF) male mice were produced according to the method described in Tomiyama T., Nagata T., Shimada H., Teraoka R., Fukushima A., Kanemitsu H., Takuma H., Kuwano R., Imagawa M., Ataka S., Wada Y., Yoshioka E., Nishizaki T., Watanabe Y., Mori H. A new amyloid β variant favoring oligomerization in Alzheimer's-type dementia. Ann. Neurol. 63, 377-387 (2008) at BioSafety Research Center Inc. (BSRC), which has a track record in producing model mice, and were raised until 24 weeks of age. These mice were then delivered to New Drug Research Center, Inc. and acclimatized until the preliminary breeding period. Note that quarantine was carried out from the date of arrival, considered as Day 0, up to Day 7. General observations were made daily, and body weights were measured on Day 1 (the day following the arrival), Day 3, and Day 7 after the arrival. Each individual was placed in a polysulfone cage and kept in an animal breeding room under conditions of a temperature of 22° C.±3° C., a humidity of 50%±20%, and a 12-hour light/dark cycle.
(§2) Of the 16 wild-type mice that arrived, 10 with weights close to the average were selected to form the normal group. Sixty-eight APPosk mice were delivered and assigned by stratified continuous randomization to the following groups: Pathological; Pathological+2ccPA (L); Pathological+2ccPA (H); Pathological+2cLPA (L); and Pathological+2cLPA (H). L: Low dose (0.9 mg/kg); H: High dose (1.8 mg/kg)
(§3) The dosing solution was filled into a syringe (disposable syringe) equipped with a 26G needle, and administered intraperitoneally once daily for 168 days (24 weeks). On the day when the Morris water maze test was performed, the dosing solution was administered after the Morris water maze test.
When the mice reached 12 months of age (48 weeks of age), the Morris water maze test was performed.
The water maze (diameter: 90 cm; height: 60 cm; water temperature: approximately 22° C.) was made opaque with a white non-toxic paint (skim milk) and divided into four virtual quadrants (east, west, north, and south). A circular platform having a diameter of 8 cm was submerged approximately 1 cm below the water surface and placed near the center of the north quadrant. Black markers were placed on the walls of the water maze as extramaze cues.
The time it took to reach the platform placed in the water maze (escape latency) was measured over 4 days. Each animal underwent five consecutive trials, with an interval of approximately 20 seconds between the end and start of each trial.
Each trial began with the mouse being placed in any quadrant except the north quadrant, with its face facing the outer edge of the water maze. A webcam (Logicool HD Webcam C615) and SMART v3.0 (Panlab Harvard Apparatus) were used for measurement and analysis. […]

[4] = Body weight measurement once a week during 24 weeks of daily administration; format: in vivo, mouse; design: Weight change / Weight change (average): unit not given here; details: APPosk mice; for Weight loss after 24 weeks of daily administration: i.p. once daily, 0.9 or 1.8 mg/kg; for Weight change: range
Source text: as §1, §2, §3
Body weight was measured using an electronic balance once a week. Each time, the measurement was carried out twice at different times.

[5] = high dose (H) 1.8 mg/kg i.p. once daily for 24 weeks
[6] = low dose (L) 0.9 mg/kg i.p. once daily for 24 weeks

Compound | Suppression of phosphorylation of tau protein [2] | Phosphorylated tau (Ser396) area/Hippocampus area (average) [2] | Phosphorylated tau (Ser404) area/Hippocampus area (average) [2] | Tau protein area/Hippocampus area (average) [2] | Phosphorylated tau (Ser396) area/Hippocampus area [2] | Phosphorylated tau (Ser404) area/Hippocampus area [2] | Tau protein area/Hippocampus area [2] | Memory improvement effect in the Morris water maze test [3] | Weight loss after 24 weeks of daily administration [4] | Weight change (average) [4, 5] | Weight change (average) [4, 6] | Weight change [4, 5] | Weight change [4, 6] | other results
CCCCCCCCC=CCCCCCCCC(=O)OCC1COP(=O)(O)C1 (stereo not shown) [2ccPA, oleoyl-2-carba-cPA] | significantly suppress the phosphorylation of tau protein | (2.3) % | (0.5) % | (17.4) % | 2.0-4.9% | 0.4-1.7% | 7.7-19.5% | significantly improved memory; also recorded: significantly improve memory decline | No weight loss was observed | 32.1 | 32.3 | 30.6-32.8 | 31.4-33.6 | 2ccPA concentration in microdialysis recovery fluid ([1]; 0.5 hours after administration): 1.90 ng/mL; 2ccPA concentration in microdialysis recovery fluid ([1]; 1.0 hours after administration): 2.22 ng/mL; 2ccPA concentration in microdialysis recovery fluid ([1]; 1.5 hours after administration): 2.81 ng/mL; 2ccPA concentration in microdialysis recovery fluid ([1]; 2.0 hours after administration): 2.24 ng/mL; 2ccPA concentration in microdialysis recovery fluid ([1]; 2.5 hours after administration): 1.64 ng/mL; 2ccPA concentration in microdialysis recovery fluid ([1]; 3.0 hours after administration): 1.80 ng/mL; 2ccPA concentration in microdialysis recovery fluid ([1]; 3.5 hours after administration): 2.32 ng/mL; 2ccPA concentration in microdialysis recovery fluid ([1]; 4.0 hours after administration): 2.12 ng/mL; 2ccPA concentration in microdialysis recovery fluid ([1]; 4.5 hours after administration): 2.12 ng/mL; 2ccPA concentration in microdialysis recovery fluid ([1]; 5.0 hours after administration): 1.22 ng/mL; Crossing of the blood-brain barrier ([1]; mice, hippocampal microdialysis): passed through the barrier of endothelial cells that line the walls of brain capillaries; 2ccPA concentration in microdialysis recovery fluid ([1]; time 0 (before administration), C57BL/6J-Aged mice): 0 ng/mL; Memory effect in the Morris water maze test at low dose ([3]; 0.9 mg/kg): memory maintenance effect comparable to that of the normal group; also recorded: clear effects
oleoyl-2-carba-LPA [2cLPA] | significantly suppress the phosphorylation of tau protein | (2.4) % | (1.2) % | (19.0) % | 0.5-4.7% | 0.9-1.8% | 10.6-36.2% | significantly improved memory; also recorded: significantly improve memory decline | No weight loss was observed | 30.2 | 32.0 | 29.6-31.9 | 30.8-33.3 | Memory effect in the Morris water maze test at low dose [3]: clear effects
